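Where inhibition never reached the appropriate level, the endpoint shown equals the highest concentration tested. Otherwise, values were interpolated linearly from a five-concentration, 48-hour dose response in 96-well plates. GI50 marks 50% less growth. The concentration for full growth arrest is given as TGI.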
Assays:
Experiment in all cases: inhibition of tumour cell growth, NCI panel, 48 h
HL-60(TB) leukemia = system: HL-60(TB) leukemia
CAKI-1 renal = system: CAKI-1 renal
SF-268 CNS = system: SF-268 CNS
MALME-3M melanoma = system: MALME-3M melanoma
BT-549 breast = system: BT-549 breast
SK-MEL-2 melanoma = system: SK-MEL-2 melanoma
SN12C renal = system: SN12C renal
SK-MEL-5 melanoma = system: SK-MEL-5 melanoma
NCI-H522 lung = system: NCI-H522 lung
UO-31 renal = system: UO-31 renal
DU-145 prostate = system: DU-145 prostate
HOP-92 NSCLC = system: HOP-92 NSCLC
MOLT-4 leukemia = system: MOLT-4 leukemia
SNB-19 CNS = system: SNB-19 CNS
MDA-MB-231 breast = system: MDA-MB-231 breast
U251 CNS = system: U251 CNS
HS 578T breast = system: HS 578T breast
CCRF-CEM leukemia = system: CCRF-CEM leukemia
SR leukemia = system: SR leukemia
OVCAR-8 ovarian = system: OVCAR-8 ovarian
COLO 205 colon = system: COLO 205 colon
EKVX NSCLC = system: EKVX NSCLC
SF-539 CNS = system: SF-539 CNS
ACHN renal = system: ACHN renal
SNB-75 CNS = system: SNB-75 CNS
NCI-H226 lung = system: NCI-H226 lung
786-0 renal = system: 786-0 renal
UACC-257 melanoma = system: UACC-257 melanoma
TK-10 renal = system: TK-10 renal

`N#Cc1c[nH]n2c(N=Nc3ccc(Cl)cc3)c(O)nc12` was tested, and the GI50 (HL-60(TB) leukemia) was greater than 100 µM, the TGI (HL-60(TB) leukemia) was greater than 100 µM and the GI50 (CAKI-1 renal) was 85.9 µM. For the same molecule, the TGI (CAKI-1 renal) was greater than 100 µM, the GI50 (SF-268 CNS) was 20.6 µM and the TGI (SF-268 CNS) was 77.4 µM. For the same molecule, the GI50 (MALME-3M melanoma) was 41.6 µM, the TGI (MALME-3M melanoma) was greater than 100 µM and the GI50 (BT-549 breast) was 28.5 µM. For the same molecule, the TGI (BT-549 breast) was 77.6 µM, the GI50 (SK-MEL-2 melanoma) was 52 µM and the TGI (SK-MEL-2 melanoma) was greater than 100 µM. For the same molecule, the GI50 (SN12C renal) was 24.1 µM, the TGI (SN12C renal) was 57.3 µM and the GI50 (SK-MEL-5 melanoma) was 20.8 µM. It also gave a TGI (SK-MEL-5 melanoma) of 43.7 µM, a GI50 (NCI-H522 lung) of 26.9 µM and a TGI (NCI-H522 lung) greater than 100 µM. For the same molecule, the GI50 (UO-31 renal) was 32.3 µM, the TGI (UO-31 renal) was greater than 100 µM and the GI50 (DU-145 prostate) was 42.6 µM. The TGI (DU-145 prostate) was greater than 100 µM, the GI50 (HOP-92 NSCLC) was 13.1 µM and the TGI (HOP-92 NSCLC) was 52.2 µM. The GI50 (MOLT-4 leukemia) was 33.7 µM, the TGI (MOLT-4 leukemia) was greater than 100 µM and the GI50 (SNB-19 CNS) was 33.8 µM. It also gave a TGI (SNB-19 CNS) greater than 100 µM, a GI50 (MDA-MB-231 breast) of 16.2 µM and a TGI (MDA-MB-231 breast) greater than 100 µM. It also gave a GI50 (U251 CNS) of 35.6 µM, a TGI (U251 CNS) greater than 100 µM and a GI50 (HS 578T breast) of 56.9 µM. For the same molecule, the TGI (HS 578T breast) was greater than 100 µM, the GI50 (CCRF-CEM leukemia) was 31.1 µM and the TGI (CCRF-CEM leukemia) was greater than 100 µM. For the same molecule, the GI50 (SR leukemia) was 25.4 µM, the TGI (SR leukemia) was greater than 100 µM and the GI50 (OVCAR-8 ovarian) was 32 µM. The TGI (OVCAR-8 ovarian) was greater than 100 µM, the GI50 (COLO 205 colon) was 29 µM and the TGI (COLO 205 colon) was greater than 100 µM. The GI50 (EKVX NSCLC) was 31.7 µM, the TGI (EKVX NSCLC) was 81.1 µM and the GI50 (SF-539 CNS) was 26.9 µM. It also gave a TGI (SF-539 CNS) of 54.1 µM, a GI50 (ACHN renal) of 24.7 µM and a TGI (ACHN renal) of 62 µM. The GI50 (SNB-75 CNS) was 40.7 µM, the TGI (SNB-75 CNS) was greater than 100 µM and the GI50 (NCI-H226 lung) was 18.5 µM. It also gave a TGI (NCI-H226 lung) of 43.3 µM, a GI50 (786-0 renal) of 51.6 µM and a TGI (786-0 renal) greater than 100 µM. The GI50 (UACC-257 melanoma) was 20.1 µM, the TGI (UACC-257 melanoma) was 57.9 µM and the GI50 (TK-10 renal) was 21.3 µM.

— PubChem BioAssay (NCI)
